# According to article PMC12150604, “Exploring structure–activity relationships of pyrrolyl diketo acid derivatives as non-nucleoside inhibitors of terminal deoxynucleotidyl transferase enzyme” (Journal of Enzyme Inhibition and Medicinal Chemistry, 2025):
# Where “and” joins values, the source holds several entries; their conditions need not be identical. Identical values can stand only once. Like-named read-outs stand apart in the source and are kept apart here.
# Target: T1, human TdT (Homo sapiens, UniProt P04053)
# T1 construct: purchased Trevigen (Gaithersburg, MD)
# Test: Terminal transferase assay, TdT
# Format: biochemical
# Settings: for IC50: human TdT
# Method: Recombinant full-length human DNA polymerase λ and β were generated and purified as described. After purification, the protein was >90% homogeneous, as judged by sodium dodecyl sulphate (SDS)−polyacrylamide gel electrophoresis (PAGE) and Coomassie staining. TdT was from Trevigen (Gaithersburg, MD).
# Terminal Transferase Assay. DNA polymerase λ and TdT terminal transferase activities were assayed in a final volume of 25 μL containing 50 mM Tris-HCl (pH 7.0), 0.25 mg/mL BSA, 1 mM DTT, 0.2 μM ss 30mer (AAC)10 DNA oligonucleotide, 25 μM [3H]dNTPs (10 Ci/mmol) and 0.5 mM MnCl2 or 5 mM MgCl2 used as cofactors. Terminal transferase activity was monitored in the presence of 10% DMSO or in the presence of increasing amounts of inhibitors dissolved in DMSO. All reactions were incubated for 10 min at 37 °C and the DNA precipitated with 10% trichloroacetic acid. Insoluble radioactive material was determined by scintillation counting using Trilux beta-counter (PerkinElmer) as described.
# Dose − response curves were generated by computer fitting of the data to the equation E(%) = Emax/(1 + I/ID50) where E(%) is the fraction of enzyme’s activity measured in the presence of the inhibitor, Emax is the activity in the absence of the inhibitor, I is the inhibitor concentration, and ID50 is the inhibitor concentration at which E(%) = 0.5 Emax. ID50 values were generated using GraphPad Prism 6.
# [1] = Mg2+ as cofactor, read-out: ID50 (µM) Mg2+
# [2] = Mn2+ as cofactor, read-out: ID50 (µM) Mn2+
# T1 sequence (P04053 whole entry): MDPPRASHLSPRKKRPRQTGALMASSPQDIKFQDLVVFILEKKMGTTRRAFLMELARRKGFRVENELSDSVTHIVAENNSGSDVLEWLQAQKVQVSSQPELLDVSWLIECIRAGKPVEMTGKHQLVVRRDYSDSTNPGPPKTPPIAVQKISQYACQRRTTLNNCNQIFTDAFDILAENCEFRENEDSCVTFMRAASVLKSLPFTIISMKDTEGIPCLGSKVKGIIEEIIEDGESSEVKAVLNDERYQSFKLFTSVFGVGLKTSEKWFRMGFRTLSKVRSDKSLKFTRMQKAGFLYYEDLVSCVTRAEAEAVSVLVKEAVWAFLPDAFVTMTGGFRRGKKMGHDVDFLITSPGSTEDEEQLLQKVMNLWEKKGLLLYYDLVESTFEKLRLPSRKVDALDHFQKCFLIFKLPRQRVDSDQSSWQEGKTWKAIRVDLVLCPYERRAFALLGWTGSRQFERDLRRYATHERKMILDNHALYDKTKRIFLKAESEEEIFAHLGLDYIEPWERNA
IC50 [1],IC50 [2] [µM],Compound,also measured
0.24 ± 0.03 µM,0.23 ± 0.03,COc1cc(-c2c[nH]cc2/C=C/C(=O)/C=C(\O)C(=O)O)cc(OC)c1OC [Compound 8d],
,> 50,"CCOC(=O)/C(O)=C/C(=O)/C=C/c1cccn1Cc1ccc(F)cc1 [Compound 5a, Ethyl (2Z,5E)-6-(1-(4-fluorobenzyl)-1H-pyrrol-2-yl)-2-hydroxy-4-oxohexa-2,5-dienoate]",
,> 50,"CCOC(=O)/C(O)=C/C(=O)c1cccn1Cc1ccc(F)cc1 [Compound 9a, Ethyl (Z)-4-(1-(4-fluorobenzyl)-1H-pyrrol-2-yl)-2-hydroxy-4-oxobut-2-enoate]",
,0.19 ± 0.08,O=C(/C=C(\O)C(=O)O)/C=C/c1c[nH]cc1-c1ccccc1 [Compound 8c],improvement in inhibitory activity in respect to hit compound 4 (TdT): higher than 3 times
,0.66 ± 0.12,"O=C(/C=C(\O)C(=O)O)/C=C/c1cn(Cc2ccc(F)cc2)cc1-c1ccccc1 [Compound 8b, (2Z,5E)-6-(1-(4-fluorobenzyl)-4-phenyl-1H-pyrrol-3-yl)-2-hydroxy-4-oxohexa-2,5-dienoic acid]",
12.8 ± 4.2 µM,> 50,O=C(/C=C(\O)C(=O)O)/C=C/c1cc(C(=O)c2ccc(OCc3ccc4ccccc4c3)cc2)cn1Cc1ccc(F)cc1 [Compound 6d],
,3.25 ± 0.66,"O=C(O)/C(O)=C/C(=O)c1cc(-c2ccccc2)cn1Cc1ccc(F)cc1 [Compound 10b, (Z)-4-(1-(4-fluorobenzyl)-4-phenyl-1H-pyrrol-2-yl)-2-hydroxy-4-oxobut-2-enoic acid]",
,>50,"(E)-6-(1-(4-fluorobenzyl)-4-(4-phenoxybenzoyl)-1H-pyrrol-2-yl)-2,4-dioxohex-5-enoic acid [Compound 6e]",
2.11 ± 0.5 µM,> 50,O=C(/C=C(\O)C(=O)O)/C=C/c1cc(C(=O)c2ccccc2)cn1Cc1cccc2ccccc12 [Compound 6j],
10.6 ± 3.6 µM,1.28 ± 0.27,CCOC(=O)/C(O)=C/C(=O)/C=C/c1cc(C(=O)c2cc(OC)c(OC)c(OC)c2)c[nH]1 [Compound 5k],"times lower potency than acid counterpart 6k (TdT, Mn2+, ratio of ID50): 3 times"
3.68 ± 1 µM,> 50,CCOC(=O)/C(O)=C/C(=O)/C=C/c1cc(C(=O)c2ccccc2)cn1Cc1cccc2ccccc12 [Compound 5j],
0.64 ± 0.25 µM,7.71 ± 2.4,O=C(/C=C/c1cc(C(=O)c2ccc([N+](=O)[O-])cc2)cn1Cc1ccc(F)cc1)/C=C(/O)C(=O)O [Compound 6f],
,4.07 ± 0.81,O=C(/C=C(\O)C(=O)O)/C=C/c1cc(C(=O)c2ccc3c(c2)OCCO3)cn1Cc1ccc(F)cc1 [Compound 6c],
,2.72 ± 0.73,"CCOC(=O)/C(O)=C/C(=O)/C=C/c1cn(Cc2ccc(F)cc2)cc1-c1ccccc1 [Compound 7b, Ethyl (2Z,5E)-6-(1-(4-fluorobenzyl)-4-phenyl-1H-pyrrol-3-yl)-2-hydroxy-4-oxohexa-2,5-dienoate]",
,6.31 ± 2.8,"O=C(/C=C(\O)C(=O)O)/C=C/c1ccn(Cc2ccc(F)cc2)c1 [Compound 8a, (2Z,5E)-6-(1-(4-fluorobenzyl)-1H-pyrrol-3-yl)-2-hydroxy-4-oxohexa-2,5-dienoic acid]",
5.83 ± 1.76 µM,> 50,CCOC(=O)/C(O)=C/C(=O)/C=C/c1cc(C(=O)c2ccc(OCc3ccc4ccccc4c3)cc2)cn1Cc1ccc(F)cc1 [Compound 5d],
,2.8 ± 0.7,"O=C(O)/C(O)=C/C(=O)c1ccn(Cc2ccc(F)cc2)c1 [Compound 12a, (Z)-4-(1-(4-fluorobenzyl)-1H-pyrrol-3-yl)-2-hydroxy-4-oxobut-2-enoic acid]",
0.86 ± 0.14 µM,0.38 ± 0.06,COc1cc(C(=O)c2c[nH]c(/C=C/C(=O)/C=C(\O)C(=O)O)c2)cc(OC)c1OC [Compound 6k],

IC50 [1],IC50 [2] [µM],Compound,also measured
> 50 µM,1.63 ± 0.35,"O=C(/C=C(\O)C(=O)O)/C=C/c1cccn1Cc1ccc(F)cc1 [Compound 6a, (2Z,5E)-6-(1-(4-fluorobenzyl)-1H-pyrrol-2-yl)-2-hydroxy-4-oxohexa-2,5-dienoic acid]","times higher activity than 4-phenyl counterpart 6b (TdT, Mn2+, ratio of ID50): 4 times; times more active than the hit compound 2 (TdT, Mn2+, ratio of ID50): about 6 times"
10.5 ± 3.6 µM,> 50,CCOC(=O)/C(O)=C/C(=O)/C=C/c1c[nH]cc1-c1ccccc1 [Compound 7c],
37.8 µM and 35.8 µM,> 50,"CCOC(=O)/C(O)=C/C(=O)/C=C/c1cc(C(=O)c2ccccc2)c[nH]1 [Compound 5l, (2Z,5E)-ethyl 6-(4-benzoyl-1H-pyrrol-2-yl)-2-hydroxy-4-oxohexa-2,5-dienoate]",
3.87 ± 0.55 µM,8.75 ± 0.35,CCOC(=O)/C(O)=C/C(=O)/C=C/c1cc(C(=O)c2ccccc2)cn1S(=O)(=O)c1ccc(F)cc1 [Compound 5m],
0.91 ± 0.36 µM,> 50,CCOC(=O)/C(O)=C/C(=O)/C=C/c1cc(C(=O)c2ccc(NC(=O)c3ccc(OC)c(Br)c3)cc2)cn1Cc1ccc(F)cc1 [Compound 5g],
,> 50,"CCOC(=O)/C(O)=C/C(=O)c1cc(-c2ccccc2)cn1Cc1ccc(F)cc1 [Compound 9b, Ethyl (Z)-4-(1-(4-fluorobenzyl)-4-phenyl-1H-pyrrol-2-yl)-2-hydroxy-4-oxobut-2-enoate]",
0.22 ± 0.01 µM,0.3 ± 0.13,"O=C(/C=C(\O)C(=O)O)/C=C/c1cc(C(=O)c2ccccc2)c[nH]1 [Compound 6l, (2Z,5E)-6-(4-benzoyl-1H-pyrrol-2-yl)-2-hydroxy-4-oxohexa-2,5-dienoic acid]",
,> 50,"CCOC(=O)/C(O)=C/C(=O)c1ccn(Cc2ccc(F)cc2)c1 [Compound 11a, Ethyl (Z)-4-(1-(4-fluorobenzyl)-1H-pyrrol-3-yl)-2-hydroxy-4-oxobut-2-enoate]",
21.3 ± 5.05 µM,> 50,CCOC(=O)/C(O)=C/C(=O)/C=C/c1c[nH]cc1-c1cc(OC)c(OC)c(OC)c1 [Compound 7d],
0.41 ± 0.03 µM,> 50,COc1ccc(C(=O)Nc2ccc(C(=O)c3cc(/C=C/C(=O)/C=C(\O)C(=O)O)n(Cc4ccc(F)cc4)c3)cc2)cc1Br [Compound 6g],
,> 50,"CCOC(=O)/C(O)=C/C(=O)/C=C/c1ccn(Cc2ccc(F)cc2)c1 [Compound 7a, Ethyl (2Z,5E)-6-(1-(4-fluorobenzyl)-1H-pyrrol-3-yl)-2-hydroxy-4-oxohexa-2,5-dienoate]",
6.54 ± 0.78 µM,> 50,CCOC(=O)/C(O)=C\C(=O)/C=C/c1cc(C(=O)c2ccc([N+](=O)[O-])cc2)cn1Cc1ccc(F)cc1 [Compound 5f],
> 50 µM,6.9 ± 2.5,"O=C(/C=C(\O)C(=O)O)/C=C/c1cc(-c2ccccc2)cn1Cc1ccc(F)cc1 [Compound 6b, (2Z,5E)-6-(1-(4-fluorobenzyl)-4-phenyl-1H-pyrrol-2-yl)-2-hydroxy-4-oxohexa-2,5-dienoic acid]",
,> 50,"CCOC(=O)/C(O)=C/C(=O)/C=C/c1cc(-c2ccccc2)cn1Cc1ccc(F)cc1 [Compound 5b, Ethyl (2Z,5E)-6-(1-(4-fluorobenzyl)-4-phenyl-1H-pyrrol-2-yl)-2-hydroxy-4-oxohexa-2,5-dienoate]",
0.34 ± 0.01 µM,0.33 ± 0.05,O=C(/C=C(\O)C(=O)O)/C=C/c1cc(C(=O)c2ccccc2)cn1S(=O)(=O)c1ccc(F)cc1 [Compound 6m],
,1.16 ± 0.35,"O=C(O)/C(O)=C/C(=O)c1cccn1Cc1ccc(F)cc1 [Compound 10a, (Z)-4-(1-(4-fluorobenzyl)-1H-pyrrol-2-yl)-2-hydroxy-4-oxobut-2-enoic acid]",
,> 50,CCOC(=O)/C(O)=C/C(=O)/C=C/c1cc(C(=O)c2ccc3c(c2)OCCO3)cn1Cc1ccc(F)cc1 [Compound 5c],
